What all share (assay type): functional, cell-based
The subject of assay [1] is MDA-MB-231. Briefly: Antiproliferative activity against human MDA-MB-231 cells after 48 hrs by CCK-8 assay. As to conditions: MDA-MB-231, 48 h. For orientation: Formazan colour is commonly taken as a measure of viable cells.
Assay [2] deals with MCF7. Briefly: Antiproliferative activity against human MCF7 cells after 48 hrs by CCK-8 assay. As to conditions: MCF7, 48 h.
Assay [3] relates to MCF7. Briefly: Induction of apoptosis in human MCF7 cells after 24 hrs by annexin V-FITC and PI-based fluorescence assay.
Assay [4] concerns MCF7. Briefly: Induction of apoptosis in human MCF7 cells assessed as late apoptosis at 0.3 ug/ml after 24 hrs by annexin V-FITC and PI-based fluorescence assay.
Assay [5] deals with MCF7. Briefly: Induction of apoptosis in human MCF7 cells assessed as early apoptosis at 0.9 ug/ml after 24 hrs by annexin V-FITC and PI-based fluorescence assay.
The subject of assay [6] is MCF7. Briefly: Induction of apoptosis in human MCF7 cells assessed as late apoptosis at 0.9 ug/ml after 24 hrs by annexin V-FITC and PI-based fluorescence assay.
Assay [7] deals with MCF7. Briefly: Induction of apoptosis in human MCF7 cells assessed as early apoptosis at 0.3 ug/ml after 24 hrs by annexin V-FITC and PI-based fluorescence assay.
Assay [8] concerns MDA-MB-231. Briefly: Induction of apoptosis in human MDA-MB-231 cells after 24 hrs by annexin V-FITC and PI-based fluorescence assay.
Assay [9] has as its system MDA-MB-231. Briefly: Induction of apoptosis in human MDA-MB-231 cells at 1.25 ug/ml after 24 hrs by annexin V-FITC and PI-based fluorescence assay.
For assay [10], the system named is MDA-MB-231. Briefly: Induction of apoptosis in human MDA-MB-231 cells at 0.4 ug/ml after 24 hrs by annexin V-FITC and PI-based fluorescence assay.

≈ marks a conversion by molar mass, not a printed value. Calls of active or inactive are those of the source. The rule behind the calls is not given here. Bounds are passed on as bounds.

By IC50 is commonly meant the concentration that inhibits the measured activity by half. Higher therefore signals weaker potency in that assay.

As to `COc1ccc2[nH]c(C)c(C3=C(Br)C(=O)C(Br)=C(Br)C3=O)c2c1`, the IC50 with MDA-MB-231 [1] was greater than 10 µg/mL; in the assay with MCF7 [2] it was greater than 25 µg/mL.

`COc1ccc2[nH]c(C)c(C3=C(Br)C(=O)C(c4c(C)[nH]c5ccccc45)=C(Br)C3=O)c2c1`: the IC50 in the assay with MDA-MB-231 [1] was greater than 10 µg/mL; in the assay on MCF7 [2], greater than 25 µg/mL.

In the case of `Cc1ccc(-c2[nH]c3ccccc3c2C2=C(Br)C(=O)C(Br)=C(Br)C2=O)cc1`, the IC50 in the assay with MDA-MB-231 [1] is 21.6 µg/mL (≈ 39.2 µM); in the assay with MCF7 [2], greater than 25 µg/mL.

With `COc1ccc2[nH]c(C)c(C3=C(Cl)C(=O)C(Cl)=C(c4c(-c5ccc(C)cc5)[nH]c5ccccc45)C3=O)c2c1`, the IC50 with MDA-MB-231 [1] amounted to 6.04 µg/mL (≈ 11.2 µM); in the assay on MCF7 [2], 2.31 µg/mL (≈ 4.27 µM).

As for `Cc1[nH]c2ccccc2c1C1=C(Br)C(=O)C(Br)=C(c2c(C)[nH]c3ccccc23)C1=O`, the IC50 in the assay with MDA-MB-231 [1] amounted to 4.76 µg/mL (≈ 9.08 µM); in the assay with MCF7 [2], 8.33 µg/mL (≈ 15.9 µM).

In the assay with MDA-MB-231 [1], `COc1cccc2c1C(=O)c1c(O)c3c(c(O)c1C2=O)C[C@@](O)(C(=O)CO)C[C@@H]3O[C@H]1C[C@H](N)[C@H](O)[C@H](C)O1` [DOXORUBICIN] yielded an IC50 of 0.2 µg/mL (≈ 0.368 µM).

Consider `COc1ccc2[nH]c(C)c(C3=C(Cl)C(=O)C(c4c(-c5ccc(C)cc5)[nH]c5ccccc45)=C(Cl)C3=O)c2c1`, for which the values for the IC50 in the assay with MDA-MB-231 [1] and with MCF7 [2] were 4.15 µg/mL (≈ 7.66 µM) and 3.11 µg/mL (≈ 5.74 µM), respectively.

For the compound `COc1ccc2[nH]c(C)c(C3=C(Br)C(=O)C(c4c(-c5ccccc5)[nH]c5ccccc45)=C(Br)C3=O)c2c1`, the values for the IC50 in the assay with MDA-MB-231 [1] and in the assay on MCF7 [2] were 5.02 µg/mL (≈ 8.15 µM) and 2.57 µg/mL (≈ 4.17 µM), respectively.

With `COc1ccc2[nH]c(C)c(C3=C(Br)C(=O)C(Br)=C(c4c(C)[nH]c5ccc(OC)cc45)C3=O)c2c1`, the IC50 in the assay with MDA-MB-231 [1] turned out to be 8.43 µg/mL (≈ 14.4 µM); in the assay with MCF7 [2], 4.72 µg/mL (≈ 8.08 µM).

In the case of `Cc1[nH]c2ccccc2c1C1=C(Br)C(=O)C(Br)=C(c2c(-c3ccccc3)[nH]c3ccccc23)C1=O`, the IC50 with MDA-MB-231 [1] was found to be 4.33 µg/mL (≈ 7.39 µM); in the assay with MCF7 [2] it was 3.02 µg/mL (≈ 5.15 µM).

Consider `Cc1[nH]c2ccccc2c1C1=C(Cl)C(=O)C(Cl)=C(c2c(-c3ccccc3)[nH]c3ccccc23)C1=O`, for which the IC50 in the assay with MDA-MB-231 [1] came out at 5.27 µg/mL (≈ 10.6 µM); in the assay on MCF7 [2], 2.58 µg/mL (≈ 5.19 µM).

With `Cc1ccc(-c2[nH]c3ccccc3c2C2=C(Br)C(=O)C(c3c(C)[nH]c4ccccc34)=C(Br)C2=O)cc1`, the concentration for half-maximal inhibition (IC50) was found to be 6.67 µg/mL (≈ 11.1 µM) in the assay on MDA-MB-231 [1] and 3.25 µg/mL (≈ 5.41 µM) in the assay with MCF7 [2].

Regarding `Cc1[nH]c2ccccc2c1C1=C(Br)C(=O)C(c2c(C)[nH]c3ccccc23)=C(Br)C1=O`, the IC50 in the assay with MDA-MB-231 [1] is 5.55 µg/mL (≈ 10.6 µM); in the assay with MCF7 [2], 7 µg/mL (≈ 13.4 µM).

`O=C1C(Cl)=C(Cl)C(=O)C(c2c(-c3ccccc3)[nH]c3ccccc23)=C1Cl`: the IC50 with MDA-MB-231 [1] is 34.9 µg/mL (≈ 86.8 µM); in the assay with MCF7 [2], greater than 25 µg/mL.

As to `Cc1[nH]c2ccccc2c1C1=C(Cl)C(=O)C(c2c(-c3ccccc3)[nH]c3ccccc23)=C(Cl)C1=O`, the Activity result in the assay with MCF7 [3] and in the assay on MDA-MB-231 [8] was “Dose-dependent effect” in each case. For the same compound, the result with MCF7 [4], with MCF7 [5], in the assay on MCF7 [6] and with MCF7 [7] was Active. Moreover, the IC50 in the assay with MDA-MB-231 [1] was determined as 4.46 µg/mL (≈ 8.97 µM); with MCF7 [2], 2.29 µg/mL (≈ 4.6 µM).

As to `COc1ccc2[nH]c(C)c(C3=C(Br)C(=O)C(c4c(-c5ccc(C)cc5)[nH]c5ccccc45)=C(Br)C3=O)c2c1`, the Activity result with MCF7 [3] and in the assay on MDA-MB-231 [8] was “Dose-dependent effect” each time. In addition, the result with MDA-MB-231 [9] and with MDA-MB-231 [10] was Active. Besides, the IC50 in the assay with MDA-MB-231 [1] turned out to be 3.99 µg/mL (≈ 6.33 µM); in the assay with MCF7 [2] it was 2.56 µg/mL (≈ 4.06 µM).

Take `Cc1ccc(-c2[nH]c3ccccc3c2C2=C(Cl)C(=O)C(Cl)=C(c3c(C)[nH]c4ccccc34)C2=O)cc1`: the half-maximal inhibitory concentration (IC50) with MDA-MB-231 [1] turned out to be 5.77 µg/mL (≈ 11.3 µM); with MCF7 [2], 2.88 µg/mL (≈ 5.63 µM).

Take `COc1ccc2[nH]c(C)c(C3=C(Br)C(=O)C(Br)=C(c4c(-c5ccccc5)[nH]c5ccccc45)C3=O)c2c1`: the IC50 came out at 7.67 µg/mL (≈ 12.4 µM) in the assay with MDA-MB-231 [1] and 3.38 µg/mL (≈ 5.48 µM) in the assay on MCF7 [2].

As for `Cc1ccc(-c2[nH]c3ccccc3c2C2=C(Cl)C(=O)C(c3c(C)[nH]c4ccccc34)=C(Cl)C2=O)cc1`, the IC50 was determined as 4.21 µg/mL (≈ 8.23 µM) in the assay with MDA-MB-231 [1] and 2.8 µg/mL (≈ 5.48 µM) in the assay with MCF7 [2].

With `Cc1[nH]c2ccccc2c1C1=C(Br)C(=O)C(c2c(-c3ccccc3)[nH]c3ccccc23)=C(Br)C1=O`, the figures for the IC50 in the assay on MDA-MB-231 [1] and with MCF7 [2] were 5.64 µg/mL (≈ 9.62 µM) and 3.02 µg/mL (≈ 5.15 µM), respectively.

Regarding `Cc1ccc(-c2[nH]c3ccccc3c2C2=C(Br)C(=O)C(Br)=C(c3c(C)[nH]c4ccccc34)C2=O)cc1`, the IC50 with MDA-MB-231 [1] turned out to be 5.89 µg/mL (≈ 9.81 µM); with MCF7 [2] it was 6.85 µg/mL (≈ 11.4 µM).

(Values after ChEMBL document CHEMBL2040722, “Synthesis and anti-breast cancer activity of new indolylquinone derivatives” (Eur J Med Chem, 2012).)
